Source: PubChem BioAssay (NCI)
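How tested: cells in 96-well plates exposed to compound for 48 hours at five concentrations. Abbreviation: GI50, concentration required for 50% inhibition of growth. The concentration for full growth arrest is given as TGI.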

Key:
Experiment in all cases: NCI tumour cell line growth inhibition, 48 h
NCI-H460 lung = tested on: NCI-H460 lung
SK-MEL-5 melanoma = tested on: SK-MEL-5 melanoma
HOP-62 NSCLC = tested on: HOP-62 NSCLC
IGROV1 ovarian = tested on: IGROV1 ovarian
HOP-92 NSCLC = tested on: HOP-92 NSCLC
HCT-116 colon = tested on: HCT-116 colon
786-0 renal = tested on: 786-0 renal
LOX IMVI melanoma = tested on: LOX IMVI melanoma
A549 NSCLC = tested on: A549 NSCLC
SW-620 colon = tested on: SW-620 colon
HT29 colon = tested on: HT29 colon
NCI-H522 lung = tested on: NCI-H522 lung
MALME-3M melanoma = tested on: MALME-3M melanoma
MDA-MB-435 = tested on: MDA-MB-435
OVCAR-3 ovarian = tested on: OVCAR-3 ovarian
SF-295 CNS = tested on: SF-295 CNS
ACHN renal = tested on: ACHN renal
SN12C renal = tested on: SN12C renal
OVCAR-4 ovarian = tested on: OVCAR-4 ovarian
SF-268 CNS = tested on: SF-268 CNS
MCF7 breast = tested on: MCF7 breast
COLO 205 colon = tested on: COLO 205 colon
M14 melanoma = tested on: M14 melanoma
NCI/ADR-RES ovarian = tested on: NCI/ADR-RES ovarian
PC-3 prostate = tested on: PC-3 prostate
DU-145 prostate = tested on: DU-145 prostate
CAKI-1 renal = tested on: CAKI-1 renal
SNB-75 CNS = tested on: SNB-75 CNS
K-562 leukemia = tested on: K-562 leukemia
UACC-257 melanoma = tested on: UACC-257 melanoma
SF-539 CNS = tested on: SF-539 CNS
EKVX NSCLC = tested on: EKVX NSCLC
RPMI-8226 leukemia = tested on: RPMI-8226 leukemia
NCI-H23 lung = tested on: NCI-H23 lung
KM12 colon = tested on: KM12 colon
U251 CNS = tested on: U251 CNS
SK-MEL-28 melanoma = tested on: SK-MEL-28 melanoma
HL-60(TB) leukemia = tested on: HL-60(TB) leukemia
SR leukemia = tested on: SR leukemia
UO-31 renal = tested on: UO-31 renal
SK-OV-3 ovarian = tested on: SK-OV-3 ovarian
OVCAR-8 ovarian = tested on: OVCAR-8 ovarian
UACC-62 melanoma = tested on: UACC-62 melanoma
HCT-15 colon = tested on: HCT-15 colon
TK-10 renal = tested on: TK-10 renal
A498 renal = tested on: A498 renal
MOLT-4 leukemia = tested on: MOLT-4 leukemia
SNB-19 CNS = tested on: SNB-19 CNS
T-47D breast = tested on: T-47D breast
BT-549 breast = tested on: BT-549 breast
NCI-H226 lung = tested on: NCI-H226 lung
OVCAR-5 ovarian = tested on: OVCAR-5 ovarian
SK-MEL-2 melanoma = tested on: SK-MEL-2 melanoma
CCRF-CEM leukemia = tested on: CCRF-CEM leukemia
HS 578T breast = tested on: HS 578T breast
MDA-MB-231 breast = tested on: MDA-MB-231 breast

COc1ccc(N2CCN(C(=O)c3ccc(C(F)(F)F)nc3Nc3cc(Cl)ccc3C)CC2)cc1
GI50 (NCI-H460 lung): 6.11 µM | TGI (NCI-H460 lung): 21 µM | GI50 (SK-MEL-5 melanoma): 8.02 µM | TGI (SK-MEL-5 melanoma): 20.8 µM | GI50 (HOP-62 NSCLC): 13.2 µM | TGI (HOP-62 NSCLC): 25.9 µM | GI50 (IGROV1 ovarian): 0.0509 µM | TGI (IGROV1 ovarian): 20.3 µM | GI50 (HOP-92 NSCLC): 1.49 µM | TGI (HOP-92 NSCLC): 7.97 µM | GI50 (HCT-116 colon): 6.38 µM | TGI (HCT-116 colon): 19 µM | GI50 (786-0 renal): 4.47 µM | TGI (786-0 renal): 16.8 µM | GI50 (LOX IMVI melanoma): 10.4 µM | TGI (LOX IMVI melanoma): 22.1 µM | GI50 (A549 NSCLC): 10.2 µM | TGI (A549 NSCLC): 27.7 µM | GI50 (SW-620 colon): 10.5 µM | TGI (SW-620 colon): 22.4 µM | GI50 (HT29 colon): 4.45 µM | TGI (HT29 colon): 18 µM | GI50 (NCI-H522 lung): 3.38 µM | TGI (NCI-H522 lung): 22.3 µM | GI50 (MALME-3M melanoma): 10.6 µM | TGI (MALME-3M melanoma): 28.4 µM | GI50 (MDA-MB-435): 11.2 µM | TGI (MDA-MB-435): 27.5 µM | GI50 (OVCAR-3 ovarian): 2.98 µM | TGI (OVCAR-3 ovarian): 19 µM | GI50 (SF-295 CNS): 9.78 µM | TGI (SF-295 CNS): 27.9 µM | GI50 (ACHN renal): 7.78 µM | TGI (ACHN renal): 31.1 µM | GI50 (SN12C renal): 11.8 µM | TGI (SN12C renal): 24.4 µM | GI50 (OVCAR-4 ovarian): 7.83 µM | TGI (OVCAR-4 ovarian): 29.9 µM | GI50 (SF-268 CNS): 7.04 µM | TGI (SF-268 CNS): 22.4 µM | GI50 (MCF7 breast): 2.88 µM | TGI (MCF7 breast): 21 µM | GI50 (COLO 205 colon): 11.4 µM | TGI (COLO 205 colon): 26.2 µM | GI50 (M14 melanoma): 10.6 µM | TGI (M14 melanoma): 22.6 µM | GI50 (NCI/ADR-RES ovarian): 10.1 µM | TGI (NCI/ADR-RES ovarian): 27.3 µM | GI50 (PC-3 prostate): 5.44 µM | TGI (PC-3 prostate): 32.7 µM | GI50 (DU-145 prostate): 14.7 µM | TGI (DU-145 prostate): 31 µM | GI50 (CAKI-1 renal): 1.38 µM | TGI (CAKI-1 renal): 8.36 µM | GI50 (SNB-75 CNS): 3.66 µM | TGI (SNB-75 CNS): 22.6 µM | GI50 (K-562 leukemia): 4.76 µM | TGI (K-562 leukemia): 22.8 µM | GI50 (UACC-257 melanoma): 10.7 µM | TGI (UACC-257 melanoma): 28.3 µM | GI50 (SF-539 CNS): 10.7 µM | TGI (SF-539 CNS): 24.7 µM | GI50 (EKVX NSCLC): 2.67 µM | TGI (EKVX NSCLC): 21.1 µM | GI50 (RPMI-8226 leukemia): 7.46 µM | TGI (RPMI-8226 leukemia): 49.2 µM | GI50 (NCI-H23 lung): 9.12 µM | TGI (NCI-H23 lung): 23.9 µM | GI50 (KM12 colon): 6.91 µM | TGI (KM12 colon): 20.8 µM | GI50 (U251 CNS): 9.37 µM | TGI (U251 CNS): 21.2 µM | GI50 (SK-MEL-28 melanoma): 14 µM | TGI (SK-MEL-28 melanoma): 30.3 µM | GI50 (HL-60(TB) leukemia): 6.94 µM | TGI (HL-60(TB) leukemia): 28.6 µM | GI50 (SR leukemia): 4.65 µM | TGI (SR leukemia): 39 µM | GI50 (UO-31 renal): 1.69 µM | TGI (UO-31 renal): 10.9 µM | GI50 (SK-OV-3 ovarian): 4.67 µM | TGI (SK-OV-3 ovarian): 22.1 µM | GI50 (OVCAR-8 ovarian): 11.3 µM | TGI (OVCAR-8 ovarian): 38.7 µM | GI50 (UACC-62 melanoma): 8.15 µM | TGI (UACC-62 melanoma): 20.8 µM | GI50 (HCT-15 colon): 7.71 µM | TGI (HCT-15 colon): 21.2 µM | GI50 (TK-10 renal): 15 µM | TGI (TK-10 renal): 34.6 µM | GI50 (A498 renal): 6.01 µM | TGI (A498 renal): 19.8 µM | GI50 (MOLT-4 leukemia): 4.49 µM | TGI (MOLT-4 leukemia): 29.6 µM | GI50 (SNB-19 CNS): 9.17 µM | TGI (SNB-19 CNS): 22.5 µM | GI50 (T-47D breast): 2.8 µM | TGI (T-47D breast): 26.2 µM | GI50 (BT-549 breast): 10.2 µM | TGI (BT-549 breast): 23.7 µM | GI50 (NCI-H226 lung): 14.3 µM | TGI (NCI-H226 lung): 36.3 µM | GI50 (OVCAR-5 ovarian): 10.6 µM | TGI (OVCAR-5 ovarian): 25.1 µM | GI50 (SK-MEL-2 melanoma): 0.949 µM | TGI (SK-MEL-2 melanoma): 19 µM | GI50 (CCRF-CEM leukemia): 8.79 µM | TGI (CCRF-CEM leukemia): 38.5 µM | GI50 (HS 578T breast): 4.09 µM | TGI (HS 578T breast): 22.1 µM | GI50 (MDA-MB-231 breast): 4.09 µM | TGI (MDA-MB-231 breast): 15.6 µM
